Data: patent publication US10583119B2, “Compounds, compositions and methods for making the same” (Signum Biosciences, Inc., priority 2008, dated 2020)

Key:
[1] = system: Ob/Ob Mice; assay: Non-fasted glucose levels in ob/ob mice; assay type: in vivo; conditions: homozygous obese mice, compound in diet for 14 days
From the text: They are also hypometabolic and hypothermic. The obesity is characterized by an increase in both the number and the size of adipocytes. Although hyperphagia contributes to the obesity, homozygotes gain excess weight and deposit excess fat even when restricted to a diet sufficient for normal weight maintenance in lean mice. Mice heterozygous for the Lep^ob mutation appear like wild-type and are lean.
Forty-eight (48) B6.V-Lep^ob/J mice (00632, The Jackson Laboratory, JAX^6 mice), homozygous for the Lep^ob mutation and thirty six (36) controls B6.V-Lep^ob/J-lean, heterozygous for the Lep^ob mutation were used to study the effect of SIG1012 on non-fasted glucose levels. The mice were ear notched for identification and housed in individually and positively ventilated polycarbonate cages with HEPA filtered air at a density of 3 mice per cage. Bed-o-cob corn cob bedding was used and cages were changed every two weeks. The animal room was lighted entirely with artificial fluorescent lighting, with a controlled 12 h light/dark cycle (7 am to 7 pm light). The normal temperature and relative humidity ranges in the animal rooms were 22±4° C. and 50±15%, respectively. The animal rooms were set to have 15 air exchanges per hour. Filtered tap water, acidified to a pH of 2.8 to 3.2, and LabDiet AIN-76A was provided ad libitum.
Following acclimation, mice were assigned to groups A through G according to their body weight and genotype:
A Lean heterozygotes—B6.V-Lep^ob/J-lean Mice Fed Control Diet (AIN-76A);
B Lean heterozygotes—B6.V-Lep^ob/J-lean Mice Fed “Low” Compound I-63 (AIN-76A with 0.001% Compound I-63);
C Lean heterozygotes—B6.V-Lep^ob/J-lean Mice Fed “Medium” Compound I-63 (AIN-76A with 0.1% Compound I-63);
D Obese homozygotes—B6. V-Lep^ob/J Mice Fed Control Diet (AIN-76A);
E Obese homozygotes—B6N-Lep^ob/J Mice Fed “Low” Compound I-63 (AIN-76A with 0.001% Compound I-63); […]
Mice from Groups A through G were maintained on the respective diet for 14 days and blood glucose levels were measured weekly.

[2] = system: serine 129 phosphorylated alpha-synuclein; assay: Dephosphorylation assay of human alpha-synuclein by PP2A and PP1; assay type: biochemical; conditions: Western blot
Description: Dephosphorylation Assay of Human a Synuclein by PP2A and PP1. […] PP2A or PP1 (serial dilutions of 200 nM, 100 nM, 50 nM, 25 nM, 12 nM, and O nM as a negative control) were incubated with serine 129 phosphorylated alpha-synuclein in MOPS buffer. The reactions were stopped by adding 5×SDS sample buffer. Levels of phosphorylated-alpha-synuclein were assessed by western blotting using an anti-phospho-Ser 129 antibody. […] Specifically, at 200 nM concentration, PP2A dephosphorylates more than 95% of the serine 129 phosphorylated alpha-synuclein.

[3] = system: alpha-synuclein phosphorylated at Ser129; assay: Effect of PP2A methylation on alpha-synuclein dephosphorylation; assay type: biochemical, human
Description: Concentrated samples of the methylated and unmethylated AC dimer of PP2A were each serially diluted to final concentrations of 200 nM, 100 nM, 50 nM, 25 nM, and 12 nM. A buffer sample (with 0 nM PP2A) was used as the negative control. The dephosphorylation assay and western blotting were performed as described above in Example 31 Western blots were scanned on a Storm Scanner (Molecular Dynamics) and band intensities quantified with Image Quant software. The relative phosphorylation levels were calculated with the following formula: Relative phosphorylation level (%)=Signal of Sample/Signal of Negative Control*100%. Regression curves of relative phosphorylation levels as a function of PP2A concentration were plotted, and the EC50 values for methylated and unmethylated PP2A were estimated using the SigmaPlot program. The EC50 is a measure of phosphatase activity or dephosphorylation activity of PP2A toward phosphorylated alpha-synuclein. Specifically, it is the concentration of the AC dimer required to achieve 50% dephosphorylation of phosphorylated alpha-synuclein. […] Specifically, methylation reduces the EC50 value of PP2A AC dimer from ˜60 nM to ˜20 nM.

[4] = biological target: T1, PP2A (Homo sapiens, UniProt P67775); assay: Phosphatase activity of PP2A using pNPP as substrate; assay type: biochemical; conditions: un-methylated PP2A, non-protein substrate pNPP, absence of ME and MT
T1 construct: made in house
Description: PP2A (10-200 nM) and pNPP (5-10 mM, Sigma) were mixed into 96-well plate (Fisher Scientific Inc.) in 50 μL of the buffer required. Reactions were performed at room temperature, and fully stopped by adding equal volume of 0.1 M EDTA. Production of p-nitrophenol […] was quantified by absorbance of reaction mixtures at 405 nm using the VMax® microplate reader (Molecular Devices).

[5] = biological target: T1, PP2A; assay: Phosphatase activity of PP2A using phosphorylase a as substrate; assay type: biochemical; conditions: un-methylated PP2A, protein substrate phosphorylase a, absence of ME and MT
Description: After the reaction, proteins were precipitated by 50% (NH4)2SO4 (final concentration) twice, and collected by centrifugation. The pellet was re-dissolved and dialyzed in a buffer containing 50 mM Tris-HCl (pH6.9) and ImM DTT for 2×2 L at 4° C. overnight. Phosphorylase a (phospho-phosphorylase b) crystallized during the dialysis. The dialysate was centrifuged 14,000 r.p.m at 4° C. for 30 minutes, the supernatant was removed and purified ^32P-labelled phosphorylase a was re-dissolved in +50% glycerol, and stored at −20° C.
To measure PP2A's phosphatase activity, PP2A (5-20 nM) was incubated with phosphorylase a (5-10 μM) at 37° C. 10% TCA (final concentration) and was added to the reaction to precipitate proteins. Supernatant that contains free ^32P-phosphate group was added into scintillation counting solution (Ecoscint, National Diagnostics), and counted by scintillation counter (LS 6000SE, Beckman).

[6] = biological target: T2, protein phosphatase specific protein methylesterase (MEase) (Homo sapiens, UniProt Q9Y570); assay: PP2A demethylation with [3H]-SAM and purified proteins (methylesterase activity); assay type: biochemical; conditions: purified methylated PP2A and MEase; read-out: ME (IC50)
T2 construct: made in house
T2 sequence (Q9Y570 1-386): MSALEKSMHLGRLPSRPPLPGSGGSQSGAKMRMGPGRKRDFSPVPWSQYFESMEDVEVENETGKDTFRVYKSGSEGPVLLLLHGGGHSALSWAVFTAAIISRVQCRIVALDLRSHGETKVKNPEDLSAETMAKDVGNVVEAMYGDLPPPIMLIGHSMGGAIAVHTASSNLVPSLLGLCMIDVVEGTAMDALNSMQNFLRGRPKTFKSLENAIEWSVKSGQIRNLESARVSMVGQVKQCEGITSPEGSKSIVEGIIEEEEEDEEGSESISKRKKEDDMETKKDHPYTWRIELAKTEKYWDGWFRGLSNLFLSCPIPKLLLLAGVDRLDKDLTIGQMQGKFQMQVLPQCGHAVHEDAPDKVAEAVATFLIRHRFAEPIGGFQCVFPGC
Description: PP2A (methylated and unmethylated) were eluted with 1.6 mL of Buffer A containing 350 mM NaCl. Fractions (0.2 mL each) were collected and the radioactivity in each fraction was measured using the scintillation counter (LS 6000SE, Beckman). Fractions with highest radioactivity were containing purified methylated PP2A were pooled with a total volume of 0.6 mL-0.8 mL. Purified methylated PP2A (50 nM-100 nM) was incubated with MEase (5 nM-20 nM) in 20 μl-50 μl reaction at room temperature for 30 minutes. The reaction was terminated by adding TCA (2 μl-6 μl) to a final concentration of 10%. Released [^3H]-methanol in supernatants was counted with scintillation counter (LS 6000SE, Beckman).

[7] = biological target: T3, protein phosphatase 2A specific methyltransferase (MTase) (Homo sapiens, UniProt Q9UIC8); assay: PP2A methylation in 96-well plate format (methyltransferase activity); assay type: biochemical; conditions: purified PP2A, MTase and [3H]-SAM; read-out: MT (IC50)
T3 construct: His; made in house
Description: Purified PP2A, MTase and [^3H]-SAM, were incubated in reaction buffer at 37° C. At the end of the reaction, mixture was added onto the membranes of 96-well filter plate (Multiscreen™, Millipore). The membranes were then pre-wetted with 70% ethanol (50 μL/well) and then subsequently washed with water (2×200 μL/well). The reaction in each well was terminated and the proteins (5 μL-20 μL) were precipitated by adding 25% ice-cold TCA. The plate was kept on ice for 30 minutes to ensure completion of protein precipitation. Excess of the free SAM was then removed by washing with 5% cold TCA ([…]) and 70% cold ethanol (2×100 μL/well). Membranes were air-dried, radioactivity in each well was counted by TopCount^NXT scintillation counter (Packard) with 25 μL/well of Microsinct™ 20 (PerkinElmer).

[8] = system: phosphorylated Tau; assay: Phosphorylated tau in vivo at four weeks (pS396 Western blot of brain); design: species or system mice; conditions: 0.1% in chow, phospho-Serine 396
Description: Swiss Webster mice (9-12 weeks old) were fed ad libitum, either standard rodent chow (Control), or rodent chow formulated with 0.1 g Compound I-63 per 100 g chow (0.1% Compound I-63) or 0.1 g Compound I-62 per 100 g chow (0.1% Compound I-62); water was changed weekly. Mice were housed at 23° C., on a 12 hour light and dark cycle, with 6 mice per cage. At 4 weeks, six mice from the Control, 0.1% Compound I-63 and 0.1% Compound I-62 groups were sacrificed by cervical dislocation, brains removed, snap-frozen in liquid nitrogen, and stored at −80° C. Brains were homogenized in 350 pi of buffer containing 20 mM MOPS-Na, pH 7.2, 1 mM EDTA/DTT, 0.5 mg/L of aprotinin, leupeptin and pepstatin, 100 nM okadaic acid, and clarified by centrifugation (14000 rpm, 10 min, 4° C.). Supernatant protein concentrations were measured by the Bradford method, 4 volumes of the supernatant and 1 volume of 5×SDS sample buffer were mixed and boiled for 2 minutes. Boiled homogenate ([…]) were loaded on 12% polyacrylamide gels, and transferred to nitrocellulose membranes. […] Protein bands were detected with the ECL Plus reagent (GE Healthcare) and blots scanned on a Molecular Dynamics Storm Imager. […]

T1 sequence (P67775 whole entry): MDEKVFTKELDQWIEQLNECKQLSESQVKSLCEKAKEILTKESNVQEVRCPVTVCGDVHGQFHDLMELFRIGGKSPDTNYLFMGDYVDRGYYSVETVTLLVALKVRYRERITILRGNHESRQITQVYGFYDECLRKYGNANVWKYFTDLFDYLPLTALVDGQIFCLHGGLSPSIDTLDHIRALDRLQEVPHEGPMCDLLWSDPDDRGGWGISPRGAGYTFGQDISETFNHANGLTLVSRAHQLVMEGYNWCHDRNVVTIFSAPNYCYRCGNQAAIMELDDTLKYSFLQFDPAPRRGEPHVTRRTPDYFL
T1 sequence (P30153 whole entry partner): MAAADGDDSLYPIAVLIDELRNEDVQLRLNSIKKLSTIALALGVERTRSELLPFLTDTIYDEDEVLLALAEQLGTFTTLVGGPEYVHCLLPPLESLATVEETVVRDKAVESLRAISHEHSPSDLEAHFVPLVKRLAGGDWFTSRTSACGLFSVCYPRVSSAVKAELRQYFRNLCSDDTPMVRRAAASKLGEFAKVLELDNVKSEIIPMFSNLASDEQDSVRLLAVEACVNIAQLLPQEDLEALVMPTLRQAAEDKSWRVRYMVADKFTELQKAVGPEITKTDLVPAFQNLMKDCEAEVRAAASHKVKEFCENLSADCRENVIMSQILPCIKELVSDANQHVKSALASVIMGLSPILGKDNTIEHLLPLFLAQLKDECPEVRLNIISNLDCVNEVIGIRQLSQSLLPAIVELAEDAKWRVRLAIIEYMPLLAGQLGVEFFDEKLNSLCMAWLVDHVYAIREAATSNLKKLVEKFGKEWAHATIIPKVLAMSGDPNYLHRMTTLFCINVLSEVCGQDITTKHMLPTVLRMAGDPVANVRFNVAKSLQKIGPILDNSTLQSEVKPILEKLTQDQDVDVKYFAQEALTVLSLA
T3 sequence (Q9UIC8 whole entry): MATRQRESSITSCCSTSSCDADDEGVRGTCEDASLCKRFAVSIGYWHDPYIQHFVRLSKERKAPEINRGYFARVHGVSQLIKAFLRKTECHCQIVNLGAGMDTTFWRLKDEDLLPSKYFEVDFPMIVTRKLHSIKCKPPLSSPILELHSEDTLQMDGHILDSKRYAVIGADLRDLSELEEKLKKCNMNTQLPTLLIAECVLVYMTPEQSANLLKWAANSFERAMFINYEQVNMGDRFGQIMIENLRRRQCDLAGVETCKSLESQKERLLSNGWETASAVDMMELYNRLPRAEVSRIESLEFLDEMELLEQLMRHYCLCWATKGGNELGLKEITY

`CN(CCOc1ccc(CC2SC(=O)NC2=O)cc1)c1ccccn1` (stereo not shown) [Rosiglitizone, reference compound] was tested, and the “reduction in non-fasted blood glucose levels” value [1] was 66%.
“PP2A: Protein phosphatase 2A, AC dimer (unmethylated or methylated), used as the enzyme dephosphorylating alpha-synuclein” was tested, and the “dephosphorylation of serine 129 phosphorylated alpha-synuclein” value ([2]; 200 nM phosphatase) was “more than 95%”, the “dephosphorylation of phosphorylated alpha-synuclein (concentration dependence)” value ([2]; 12-200 nM phosphatase) was “concentration dependent manner” and the EC50 ([3]; methylated AC dimer) was about 0.02 µM. It also gave an EC50 ([3]; unmethylated AC dimer) of about 0.06 µM.
Compound `CCCCCCCCCCCCCCCCCCCCCC(=O)NCCc1c[nH]c2ccc(O)cc12` [Compound I-62, N-(2-(5-hydroxy-1H-indol-3-yl)ethyl)docosanamide] has an IC50 [4] of 10 to 100 µM, an IC50 [5] of over 100 µM and an IC50 [6] of 10 to 100 µM. The IC50 [7] was 10 to 100 µM and the “lowering of phosphorylated tau levels in the brain compared to control” value [8] was 40%.
